Measurements reported in patent US10072034B2, “Kinase inhibitors” (Respivert Limited, priority 2016, dated 2018).

Legend:
[1] = Microcentrifuge dissolution test 1): transfer from intestinal buffer (IB) to colonic buffer (CB); type: physicochemical; details: PBS pH 6.5, 37° C.
[2] = Microcentrifuge dissolution test 2): direct dosing into intestinal media containing simulated bile-salt micelles (IB-SIF); type: physicochemical; details: for Concentration, IB Timepoint 0 min / Concentration, IB Timepoint 4 min / Concentration, IB Timepoint 10 min / Concentration, IB Timepoint 20 min / Concentration, IB Timepoint 40 min / Concentration, IB Timepoint 90 min / Concentration, IB Timepoint 1,200 min / Additional concentration, UCF Timepoint 90 min: IB-SIF; for Concentration, IB Timepoint 0 min: pH 6.5, 0 min; for Concentration, IB Timepoint 4 min: pH 6.5, 4 min; for Concentration, IB Timepoint 10 min: pH 6.5, 10 min; for Concentration, IB Timepoint 20 min: pH 6.5, 20 min; for Concentration, IB Timepoint 40 min: pH 6.5, 40 min; for Concentration, IB Timepoint 90 min: pH 6.5, 90 min; for Concentration, IB Timepoint 1,200 min: pH 6.5, 1,200 min; for Additional concentration, UCF Timepoint 90 min / Additional concentration, UCF Timepoint 1,200 min: after ultracentrifugation (free drug + drug in micelles); for Additional concentration, UCF Timepoint 1,200 min: IB-SIF, 1,200 min
Protocol: (§1) In vitro non-sink dissolution performance of the Compound of Example 3 was evaluated alongside Reference Compounds A and B employing microcentrifuge dissolution tests in which samples were either 1) transferred from intestinal buffer (IB) to colonic buffer (CB) or 2) dosed directly into intestinal media containing simulated bile-salt micelles (IB-SIF). Dissolution performance of the compounds at various timepoints was determined by centrifugation and analysis of the supernatant concentrations by off-line reverse-phase HPLC analysis.
Test compounds (0.45 mg±0.05 mg) were weighed into a microcentrifuge tube then 1.800 mL of IB-SIF receptor solution—prepared previously by dissolution of 0.250 g SIF powder (Biorelevant.com) in 50 mL of pH 6.5 PBS warmed to 37° C.—was added. A timer was started and the sample tubes were vortexed at the maximum setting for 1 minute. When the timer read 2, 8, 18, 38, 88 and 1,198 min—corresponding to the 4, 10, 20, 40, 90 and 1,200 min timepoints, respectively—the sample tubes were centrifuged for 1 min at 15,800 RCF. Then, at each timepoint, the supernatant (50 μL) was added to diluent {250 μL of 75/25 THF/Water (v/v)} and the compound concentrations were measured by off-line HPLC analysis (Table 7a). To determine the concentration of free drug+drug in micelles, the HPLC samples for the 90 and 1,200 min timepoints were additionally centrifuged for 8 min at 80,000 rpm at 37° C. in an ultracentrifuge (UCF), then the supernatant (50 μL) was added to diluent {250 PL of 75/25 THF/Water (v/v)} and the compound concentrations were measured by off-line HPLC analysis (Table 7b).

[3] = test system: SCID mice injected with CD45RBhigh cells; test: Adoptive transfer in mice (T cell driven model of colonic inflammation; assay (v)); type: in vivo; details: for % Inhibition (of induction window between naïve and vehicle animals, colon weight:length) / Colon weight:length: 3 mg/kg BID oral gavage, day 14 to day 49 (Reference Compound A lowered to 0.6 mg/kg on day 27)
Protocol: On Study day 0, female Balb/C mice are terminated and spleens obtained for CD45RB^high cell isolation (Using SCID IBD cell Separation protocol). Approximately 4×10^5 cells/mL CD45RB^high cells are then injected intraperitoneally (100 μL/mouse) into female SCID animals. On study day 14, mice are weighed and random/zed into treatment groups based on body weight. On Day 14, compounds are administered BID, via oral gavage, in 5% polyoxyethylene 40 stearate in 20 mM pH 7.8 aqueous phosphate buffer in a dose volume of 5 mL/kg. Treatment continues until study day 49, at which point the animals are necropsied 4 hours after the morning administration. The colon length and weight are recorded and used as a secondary endpoint in the study as a measurement of colon oedema. The colon is then divided into six cross-sections, four of which are used for histopathology scoring (primary endpoint) and two are homogenised for cytokine analysis. Data shown is the % inhibition of the induction window between naïve animals and vehicle animals, where higher inhibition implies closer to the non-diseased, naïve, phenotype.

[4] = Microcentrifuge dissolution test 1): transfer from intestinal buffer (IB) to colonic buffer (CB); type: physicochemical; details: for Concentration, CB Timepoint 4 min: pH 7.2, 4 min; for Concentration, CB Timepoint 10 min: pH 7.2, 10 min; for Concentration, CB Timepoint 20 min: pH 7.2, 20 min; for Concentration, CB Timepoint 40 min: pH 7.2, 40 min; for Concentration, CB Timepoint 90 min: pH 7.2, 90 min; for Concentration, CB Timepoint 1,200 min: pH 7.2, 1,200 min; for Concentration, IB Timepoint −5 min / Concentration, IB Timepoint −15 min / Concentration, IB Timepoint −25 min: PBS pH 6.5, 37° C.; for Additional concentration, UCF Timepoint 90 min / Additional concentration, UCF Timepoint 1,200 min: after ultracentrifugation (free drug + drug in micelles); for Additional concentration, UCF Timepoint 90 min: CB pH 7.2, 90 min; for Additional concentration, UCF Timepoint 1,200 min: CB pH 7.2, 1,200 min
Protocol: as §1
Test compounds (0.45 mg±0.05 mg) were weighed into a microcentrifuge tube, then 0.900 mL of IB receptor solution—phosphate buffered saline (PBS) warmed to 37° C. at pH 6.5—was added. A timer was started and the sample tubes were vortexed at the maximum setting for 1 minute. When the timer read 3, 13 and 23 min—corresponding to the 25, 15 and 5 min timepoints, respectively—the sample tubes were centrifuged for 1 min at 15,800 Relative Centrifugal Force (RCF). At each timepoint, a portion of the supernatant (50 μL) was added to diluent {250 μL of 75/25 THF/Water (v/v)} and the compound concentrations were measured by off-line HPLC analysis (Table 6a). After a further 5 min, 0.900 mL of CB receptor solution—pH 10.7 PBS solution—was added, such that the pH was adjusted to 7.2, and the timer was reset to 0 min. When the timer read 2, 8, 18, 38, 88 and 1,198 min—corresponding to the 4, 10, 20, 40, 90 and 1,200 min timepoints, respectively—the sample tubes were centrifuged for 1 min at 15,800 RCF. At each timepoint, a portion of the supernatant (50 μL) was added to diluent {250 μL of 75/25 THF/Water (v/v)} and the compound concentrations were measured by off-line HPLC analysis (Table 6a). The HPLC samples for the 90 and 1,200 min timepoints were additionally centrifuged for 8 min at 80,000 rpm at 37° C. in an ultracentrifuge (UCF), then the supernatant (50 μL) was added to diluent {250 μL of 75/25 THF/Water (v/v)} and the compound concentrations were measured by off-line HPLC analysis (Table 6b) to determine the concentration of free drug+drug in micelles.

Compound | Concentration, IB Timepoint −30 min [1] [ng/mL] | Concentration, IB Timepoint 0 min [2] [ng/mL] | Concentration, IB Timepoint 4 min [2] [ng/mL] | Concentration, IB Timepoint 10 min [2] [ng/mL] | Concentration, IB Timepoint 20 min [2] [ng/mL] | Concentration, IB Timepoint 40 min [2] [ng/mL] | Concentration, IB Timepoint 90 min [2] [ng/mL] | Concentration, IB Timepoint 1,200 min [2] [ng/mL] | Additional concentration, UCF Timepoint 90 min [2] [µg/mL] | Additional concentration, UCF Timepoint 1,200 min [2] [µg/mL] | % Inhibition (of induction window between naïve and vehicle animals, colon weight:length) [3] [%] | Colon weight:length [3] | Concentration, CB Timepoint 4 min [4] [ng/mL] | Concentration, CB Timepoint 10 min [4] [ng/mL] | Concentration, CB Timepoint 20 min [4] [ng/mL] | Concentration, CB Timepoint 40 min [4] [ng/mL] | Concentration, CB Timepoint 90 min [4] [ng/mL] | Concentration, CB Timepoint 1,200 min [4] [ng/mL] | Concentration, IB Timepoint −5 min [4] [ng/mL] | Concentration, IB Timepoint −15 min [4] [ng/mL] | further results
C#Cc1cc(Nc2nccc(Oc3ccc(NC(=O)Nc4cc(C(C)(C)C)nn4-c4ccc(C)cc4)c4ccccc34)n2)cc(C(=O)NCCOCCOCCOC)c1 [Reference Compound B, 3-((4-((4-(3-(3-(tert-butyl)-1-(p-tolyl)-1H-pyrazol-5-yl)ureido)naphthalen-1-yl)oxy)pyrimidin-2-yl)amino)-5-ethynyl-N-(2-(2-(2-methoxyethoxy)ethoxy)ethyl)benzamide] | 0 | 0 | 1100 | 900 | 1300 | 1000 | 700 | 3000 | 0.7 | 2.9 | 11 | 0.041 ± 0.005 | 5000 | 1900 | 900 | 600 | 0 | 4900 | 2200 | 1000 | Concentration, IB Timepoint −25 min [4]: 1900 ng/mL; Additional concentration, UCF Timepoint 90 min [4]: 0.0 µg/mL; Additional concentration, UCF Timepoint 1,200 min [4]: 1.6 µg/mL
COc1cc(Nc2cc(Oc3ccc(NC(=O)Nc4cc(C(C)(C)C)cc(NS(C)(=O)=O)c4OC)c4ccccc34)ccn2)cc(OCCOCCOCC(=O)O)c1 [Example 3] | 0 | 0 | 255700 | 255900 | 251700 | 249200 | 253500 | 239000 | 229.4 | 169.9 | 49 | 0.032 ± 0.004 | 9300 | 9100 | 14300 | 48300 | 60700 | 85400 | 8500 | 7500 | Activity compared to the two Reference Compounds (colon weight to length ratio) ([3]; simple aqueous-based vehicle): superior activity; Concentration, IB Timepoint −25 min [4]: 5300 ng/mL; Additional concentration, UCF Timepoint 90 min [4]: 34.1 µg/mL; Additional concentration, UCF Timepoint 1,200 min [4]: 74.9 µg/mL
COc1cc(Nc2nccc(Oc3ccc(NC(=O)Nc4cc(C(C)(C)C)cc(NS(C)(=O)=O)c4OC)c4ccccc34)n2)cc(OCCOCCOCCC(=O)O)c1 [Reference Compound A, 3-(2-(2-(3-((4-((4-(3-(5-(tert-butyl)-2-methoxy-3-(methylsulfonamido)phenyl)ureido)naphthalen-1-yl)oxy)-pyrimidin-2-yl)amino)-5-methoxyphenoxy)ethoxy)ethoxy)propanoic acid] | 0 | 0 | 39800 | 63400 | 83500 | 96500 | 99900 | 101000 | 87.0 | 88.8 | −14 | 0.047 ± 0.007 | 11400 | 11500 | 10700 | 10700 | 8400 | 7900 | 5300 | 4600 | Concentration, IB Timepoint −25 min [4]: 2900 ng/mL; Additional concentration, UCF Timepoint 90 min [4]: 5.1 µg/mL; Additional concentration, UCF Timepoint 1,200 min [4]: 3.9 µg/mL
